{"source": "patent US11872261B2", "about": "“Lipoprotein targeting protease inhibitors and uses” (The United States of America, as represented by the …, priority 2016, dated 2024)", "key": {"[1]": {"system": "alpha-1-antitrypsin (A1AT)", "experiment": "ELISA of A1AT in large HDL fraction and in plasma", "assay_type": "in vivo, human", "from_the_text": "FIG. 5A-5C. Quantitative measurement of alpha-1-antitrypsin on HDL and in plasma. (FIG. 5A) Individual patient spectral counts for alpha-1-antitrypsin (A1AT) in large HDL at baseline (T0) and after 28 days (T28) of rosuvastatin treatment, n=10 for each time point. The “n=5” indicator points to data from 5 subjects with a high degree of overlap. (FIG. 5B) Quantitative measurement of A1AT in large HDL by ELISA assay. (FIG. 5C) Time course of plasma A1AT concentrations during rosuvastatin treatment and after two-week washout period (Day 42 time point). * indicates p<0.05 and ** indicates p<0.01 compared to T0.\nTo more quantitatively evaluate the change in A1AT levels observed in the MS data, we performed ELISA assays to measure A1AT in the large HDL fractions from all subjects.\nIn addition to measuring the A1AT content of large HDL, we also measured total A1AT in plasma. There was a clear trend of increasing plasma A1AT while on treatment and a return to baseline after a two week treatment washout, this effect was relatively small, approximately 10% (FIG. 5c). […] We calculated an A1AT:HDL-particle ratio (mol:mol) of about 1:100 at baseline and 1:25 after rosuvastatin treatment."}, "[2]": {"experiment": "Clinical pilot study: lipoprotein particle numbers by nuclear magnetic resonance", "assay_type": "in vivo, human", "conditions": "20 mg/day, 28 days vs baseline", "procedure": "FIG. 1A-1C. Effect of rosuvastatin on plasma lipids and lipoprotein particle numbers. (FIG. 1A) Rosuvastatin effects on total plasma lipid levels (TC=total cholesterol; HDL-C=HDL cholesterol; LDL-C=LDL cholesterol; TG=triglyceride). The effect of rosuvastatin on LDL particle number (FIG. 1B) and HDL particle number (FIG. 1C) were measured by nuclear magnetic resonance. T0 and […] are time points indicating baseline and after 28 days of rosuvastatin treatment, respectively. Data are mean±standard deviation. * indicates p<0.01. Fasting blood samples were obtained from ten healthy volunteers participating in a study of the NIH Center for Human Immunology, intended to evaluate effects of a statin on the immune system. This protocol was approved by the institutional review board of the National Heart, Lung, and Blood Institute (NHLBI) and registered at clinicaltrials.gov (NCT01200836); all participants provided written informed consent. Three males and seven females were enrolled, with an average age of 44.1±11 years. Participants were selected to have normal LDL-C (<130 mg/dL) and were not on any lipid modification therapy prior to the study. […] HDL-C was measured by a direct assay (Siemens) and LDL-C was determined by the Friedewald equation. Lipoprotein particle numbers and average particle sizes were determined from heparinized plasma on a […] […]"}}, "data": [{"smiles": "CC(C)c1nc(N(C)S(C)(=O)=O)nc(-c2ccc(F)cc2)c1/C=C/[C@@H](O)C[C@@H](O)CC(=O)O", "note": "[rosuvastatin]", "values": [{"measurement": "elevation of A1AT in large HDL fraction, high responders", "setting": "[1]; ELISA, high responders, range", "result": "5-18 fold"}, {"measurement": "increase in A1AT levels in large HDL fraction, low-responders", "setting": "[1]; ELISA, low-responders, range", "result": "6-36%"}, {"measurement": "average increase in HDL-L associated A1AT by ELISA", "setting": "[1]; HDL-L, 28 days vs baseline, all subjects", "result": 5.7, "unit": "fold"}, {"measurement": "fraction of total A1AT bound to HDL after therapy", "setting": "[1]; estimated from A1AT content of HDL-L and plasma, baseline 0.84±0.037%", "result": "approximately 4.54±1.73%"}, {"measurement": "increase of total plasma A1AT while on treatment", "setting": "[1]; plasma, return to baseline after two week washout", "result": "approximately 10%"}, {"measurement": "increase of HDL-p", "setting": "[2]; not statistically significant", "result": 6.2, "unit": "%"}, {"measurement": "reduction of LDL particle number (LDL-p)", "setting": "[2]; p<0.001", "result": 51, "unit": "%"}]}]}
